This passage reports melting point and IC50 results from publication PMC10574761, “Novel 1,2,3-Triazole-Containing Quinoline–Benzimidazole Hybrids: Synthesis, Antiproliferative Activity, In Silico ADME Predictions, and Docking” (Molecules, 2023).

For series [1], the system named is THP-1 (acute monocytic leukemia). In words: MTT proliferation assay, THP-1. It is filed as cell-based, human. The conditions noted are these: Homo sapiens, THP-1; 72 h treatment, MTT. On the procedure:
(§1) The effect of the new synthesized compounds was tested on five human tumor cell lines, HeLa (human cervical adenocarcinoma; from ATCC), CaCo-2 (human colorectal adenocarcinoma), HL-60 (acute promyelocytic leukemia), HuT78 (T-cell lymphoma) and THP-1 (acute monocytic leukemia), and on one non-tumor cell line, MRC-5 (human fetal lung fibroblasts). The MRC-5 cells were used between 24 and 26 passages. The cells were cultured in two different types of media: DMEM (Gibco, EU) and RPMI 1640 (Gibco, EU). Both media were supplemented with 2 mM glutamine, fetal bovine serum (10%; heat inactivated) and antibiotics (100 U penicillin and 0.1 mg streptomycin). RPMI 1640 was additionally supplemented with 10 mM HEPES and 1 mM sodium pyruvate. The cells growing in a monolayer were cultured in DMEM, while the cells growing in suspension were cultured in RPMI 1640. The cells were grown in humidified atmosphere under the conditions of 37 °C/5% CO2 gas in the CO2 incubator (IGO 150 CELLlife^TM, JOUAN, Thermo Fisher Scientific, Waltham, MA, USA).
(§2) Growth-inhibitory activity was assessed using a slightly modified procedure based on the National Cancer Institute’s protocol. Briefly, the cells were seeded in 96-well microtiter plates and incubated for 24 h. They were then treated with 10^−7 to 10^−4 M concentrations of the tested compounds for an additional 72 h. After the treatment period, the effects of the tested compounds on the growth rate of the cells were examined using the MTT assay. Absorbance was measured at 595 nm using a microplate reader. […] The selectivity index was calculated according to the following formula: SI=IC50 value of normal cell line/IC50 value of cancer cell line
(§3) The effect of each concentration was analyzed by plotting the logarithm of the concentration of the evaluated compound against the corresponding percentage inhibition value using least squares.

The subject of series [2] is MRC-5 (human fetal lung fibroblasts, non-tumor). In words: MTT proliferation assay, MRC-5. The series is classed as cell-based. Particulars: MRC5, 72 h treatment. On the procedure:
as §1, §2, §3
(In general: Formazan colour is commonly taken as a measure of viable cells.)

The subject of series [3] is CaCo-2 (human colorectal adenocarcinoma). Nature of the series: MTT proliferation assay, CaCo-2. Particulars: 72 h treatment. It is filed as cell-based. On the procedure: as §1, §2, §3
Series [4] concerns Hut78 (T-cell lymphoma). In words: MTT proliferation assay, HuT78. The series is classed as cell-based, human. Particulars: Homo sapiens, HuT78; 72 h treatment, MTT. On the procedure: as §1, §2, §3
Series [5] concerns HeLa (human cervical adenocarcinoma). In words: MTT proliferation assay, HeLa. Particulars: 72 h treatment. The series is classed as cell-based. On the procedure:
as §1, §2, §3

Series [6] has as its system HL-60 (acute promyelocytic leukemia). Nature of the series: MTT proliferation assay, HL-60. The series is classed as cell-based. The conditions noted are these: Homo sapiens, 72 h treatment. On the procedure: as §1, §2, §3

As a reminder, the melting point is the temperature of the solid-liquid transition. Usually IC50 stands for the concentration needed to halve the response being measured. A high value points to weaker potency.

Structures are written as SMILES.

`Cl.Cl.Cl.N=C(N)c1ccc2[nH]c(-c3ccc(OCc4cn(CCNc5ccnc6cc(Cl)ccc56)nn4)cc3)nc2c1` [Compound 14d, 2-{4-[(1-{2-[(7-chloroquinolin-4-yl)amino]ethyl}-1H-1,2,3-triazol-4-yl)methoxy]phenyl}-1H-benzo[d]imidazol-5-carboximidamide trihydrochloride] registered a melting point of 227 to 229 °C. The compound further came in with an IC50 in series [1] greater than 100 µM. The IC50 in series [2] was greater than 100 µM. The same compound came in with an IC50 in series [3] greater than 100 µM. Also, in series [4], the IC50 worked out at 10.5 µM. Moreover, the IC50 in series [5] is greater than 100 µM. The compound also came in with an IC50 in series [6] greater than 100 µM.

For the compound `COc1ccc2[nH]c(-c3ccc(OCc4cn(-c5ccnc6cc(Cl)ccc56)nn4)c(Br)c3)nc2c1` [Compound 10c, 4-(4-{[2-bromo-4-(5-methoxy-1H-benzo[d]imidazol-2-yl)phenoxy]methyl}-1H-1,2,3-triazol-1-yl)-7-chloroquinoline], the melting point lay within 170 to 172 °C. For the same compound, in series [1], the IC50 was determined as 6.23 µM. Moreover, the IC50 in series [2] turned out to be 8.54 µM. Besides, in series [3], the IC50 is 9.92 µM. In series [4], this compound yielded an IC50 of 3.89 µM. Moreover, in series [5], the IC50 came out at 9.86 µM. Moreover, in series [6], the IC50 was determined as 18.2 µM.

Regarding `Clc1ccc2[nH]c(-c3ccc(OCc4cn(CCNc5ccnc6cc(Cl)ccc56)nn4)cc3)nc2c1` [Compound 14b, 7-chloro-N-[2-(4-{[4-(5-chloro-1H-benzo[d]imidazol-2-yl)phenoxy]methyl}-1H-1,2,3-triazol-1-yl)ethyl]quinolin-4-amine], the melting point was in the range of 213 to 215 °C. In series [1], this compound came in with an IC50 greater than 100 µM. The IC50 in series [2] is greater than 100 µM. The compound further displayed an IC50 in series [3] greater than 100 µM. Moreover, in series [4], the 50% inhibitory concentration (IC50) was greater than 100 µM. The compound further gave a concentration for half-maximal inhibition (IC50) in series [5] greater than 100 µM. In series [6], this compound displayed an IC50 greater than 100 µM.

`Cl.Cl.Cl.N=C(N)c1ccc2[nH]c(-c3ccc(OCc4cn(CCNc5ccnc6cc(Cl)ccc56)nn4)c(Br)c3)nc2c1` [Compound 15d, 2-{3-bromo-4-[(1-{2-[(7-chloroquinolin-4-yl)amino]ethyl}-1H-1,2,3-triazol-4-yl)methoxy]phenyl}-1H-benzo[d]imidazol-5-carboximidamide trihydrochloride] came in with a melting point of 215 to 217 °C. In series [1], this compound yielded a half-maximal inhibitory concentration (IC50) greater than 100 µM. For the same compound, the IC50 in series [2] was greater than 100 µM. For the same compound, in series [3], the IC50 was greater than 100 µM. Further, the IC50 in series [4] was greater than 100 µM. For the same compound, in series [5], the IC50 was greater than 100 µM. In series [6], this compound yielded an IC50 greater than 100 µM.

Compound `Clc1ccc2[nH]c(-c3ccc(OCc4cn(CCNc5ccnc6cc(Cl)ccc56)nn4)c(Br)c3)nc2c1` [Compound 15b, N-[2-(4-{[2-bromo-4-(5-chloro-1H-benzo[d]imidazol-2-yl)phenoxy]methyl}-1H-1,2,3-triazol-1-yl)ethyl]-7-chloroquinolin-4-amine] yielded a melting point of 100 to 102 °C. Also, in series [1], half-maximal inhibition (IC50) required 2.06 µM. The concentration for half-maximal inhibition (IC50) in series [2] was greater than 100 µM. For the same compound, the IC50 in series [3] is greater than 100 µM. In series [4], the IC50 was determined as 4.91 µM. Besides, the IC50 in series [5] is greater than 100 µM. Moreover, the IC50 in series [6] stood at 1.24 µM.

For `Clc1ccc2[nH]c(-c3ccc(OCc4cn(-c5ccnc6cc(Cl)ccc56)nn4)c(Br)c3)nc2c1` [Compound 10b, 4-(4-{[2-bromo-4-(5-chloro-1H-benzo[d]imidazol-2-yl)phenoxy]methyl}-1H-1,2,3-triazol-1-yl)-7-chloroquinoline], the IC50 in series [1] is 10.6 µM; in series [2] it was greater than 100 µM; in series [3] it was 10.9 µM; in series [4], 6.43 µM; in series [5], 8.11 µM; in series [6], 55.2 µM.

In turn, `COc1ccc2[nH]c(-c3ccc(OCc4cn(CCNc5ccnc6cc(Cl)ccc56)nn4)c(Br)c3)nc2c1` [Compound 15c, N-[2-(4-{[2-bromo-4-(5-methoxy-1H-benzo[d]imidazol-2-yl)phenoxy]methyl}-1H-1,2,3-triazol-1-yl)ethyl]-7-chloroquinolin-4-amine] registered a melting point of 92 to 94 °C. This compound registered an IC50 in series [1] of 1.65 µM. The IC50 in series [2] is greater than 100 µM. In series [3], the IC50 is greater than 100 µM. Besides, the IC50 in series [4] worked out at 3.98 µM. This compound also displayed an IC50 in series [5] greater than 100 µM. In series [6], the IC50 came to 2.62 µM.

Turning to `Clc1ccc2c(-n3cc(COc4ccc(-c5nc6ccccc6[nH]5)cc4)nn3)ccnc2c1` [Compound 9a, 4-(4-{[4-(1H-benzo[d]imidazol-2-yl)phenoxy]methyl}-1H-1,2,3-triazol-1-yl)-7-chloroquinoline], the melting point is 143 to 145 °C. The IC50 in series [1] is greater than 100 µM. The compound also came in with an IC50 in series [2] greater than 100 µM. The IC50 in series [3] is greater than 100 µM. Moreover, the IC50 in series [4] was determined as 100 µM. Moreover, the IC50 in series [5] is greater than 100 µM. In series [6], the IC50 was greater than 100 µM.

`Cl.Cl.Cl.N=C(N)c1ccc2[nH]c(-c3ccc(OCc4cn(-c5ccnc6cc(Cl)ccc56)nn4)cc3)nc2c1` [Compound 9d, 2-(4-{[1-(7-chloroquinolin-4-yl)-1H-1,2,3-triazol-4-yl]methoxy}phenyl)-1H-benzo[d]imidazol-5-carboximidamide trihydrochloride] registered a melting point of 240 to 242 °C. This compound also came in with an IC50 in series [1] greater than 100 µM. Further, in series [2], the IC50 is greater than 100 µM. Further, the IC50 in series [3] was greater than 100 µM. The compound also displayed an IC50 in series [4] of 2.52 µM. The compound also displayed an IC50 in series [5] greater than 100 µM. For the same compound, the IC50 in series [6] is greater than 100 µM.

As for `O=c1[nH]cc(F)c(=O)[nH]1` [Compound 5-FU, 5-fluorouracil, reference compound], the IC50 in series [1] is 76.4 µM; in series [2] it was 54.1 µM; in series [4], greater than 100 µM; in series [6] it was greater than 100 µM.

For the compound `Clc1ccc2c(-n3cc(COc4ccc(-c5nc6ccccc6[nH]5)cc4Br)nn3)ccnc2c1` [Compound 10a, 4-(4-{[4-(1H-benzo[d]imidazol-2-yl)-2-bromophenoxy]methyl}-1H-1,2,3-triazol-1-yl)-7-chloroquinoline], the melting point is 252 to 254 °C. In addition, the IC50 in series [1] came to 9.6 µM. The same compound yielded an IC50 in series [2] of 52.1 µM. In series [3], this compound registered a concentration for half-maximal inhibition (IC50) of 63.8 µM. In addition, the 50% inhibitory concentration (IC50) in series [4] was determined as 5.88 µM. Besides, the IC50 in series [5] is 10 µM. In series [6], this compound displayed an IC50 of 76.1 µM.

Turning to `CCCNC(=N)c1ccc2[nH]c(-c3ccc(OCc4cn(-c5ccnc6cc(Cl)ccc56)nn4)cc3)nc2c1.Cl.Cl.Cl` [Compound 9e, 2-(4-{[1-(7-chloroquinolin-4-yl)-1H-1,2,3-triazol-4-yl]methoxy}phenyl)-N-propyl-1H-benzo[d]imidazol-5-carboximidamide trihydrochloride], the melting point lay in the range of 228 to 230 °C. Besides, the IC50 in series [1] is greater than 100 µM. This compound had an IC50 in series [2] greater than 100 µM. For the same compound, the IC50 in series [3] is greater than 100 µM. In series [4], this compound had an IC50 of 10.2 µM. This compound gave an IC50 in series [5] greater than 100 µM. Besides, in series [6], it took 98.3 µM to reach half-maximal inhibition (IC50).

`Clc1ccc2c(NCCn3cc(COc4ccc(-c5nc6ccccc6[nH]5)cc4)nn3)ccnc2c1` [Compound 14a, N-[2-(4-{[4-(1H-benzo[d]midazole-2-yl)phenoxy]methyl}-1H-1,2,3-triazol-1-yl)ethyl]-7-chloroquinolin-4-amine] came in with a melting point of 221 to 223 °C. This compound came in with an IC50 in series [1] greater than 100 µM. The compound further had an IC50 in series [2] greater than 100 µM. The same compound registered an IC50 in series [3] greater than 100 µM. Moreover, in series [4], the 50% inhibitory concentration (IC50) was greater than 100 µM. Further, the IC50 in series [5] is greater than 100 µM. Further, in series [6], the IC50 is greater than 100 µM.

`COc1ccc2[nH]c(-c3ccc(OCc4cn(CCNc5ccnc6cc(Cl)ccc56)nn4)cc3)nc2c1` [Compound 14c, 7-chloro-N-[2-(4-{[4-(5-methoxy-1H-benzo[d]imidazol-2-yl)phenoxy]methyl}-1H-1,2,3-triazol-1-yl)ethyl]quinolin-4-amine] yielded a melting point of 150 to 152 °C. Further, in series [1], the IC50 came to 7.31 µM. For the same compound, in series [2], the IC50 is greater than 100 µM. The compound further showed an IC50 in series [3] greater than 100 µM. The compound further returned an IC50 in series [4] greater than 100 µM. In series [5], this compound yielded an IC50 greater than 100 µM. Besides, the IC50 in series [6] was greater than 100 µM.

Compound `Clc1ccc2[nH]c(-c3ccc(OCc4cn(-c5ccnc6cc(Cl)ccc56)nn4)cc3)nc2c1` [Compound 9b, 7-chloro-4-(4-{[4-(5-chloro-1H-benzo[d]imidazol-2-yl)phenoxy]methyl}-1H-1,2,3-triazol-1-yl)quinoline] yielded a melting point of 168 to 170 °C. In series [1], the IC50 is greater than 100 µM. Moreover, the IC50 in series [2] is 100 µM. In series [3], the IC50 was greater than 100 µM. Further, the IC50 in series [4] stood at 92.9 ± 4.3 µM. This compound returned an IC50 in series [5] of 94.1 µM. The compound further returned an IC50 in series [6] greater than 100 µM.
